# pIC50: −log10 of the molar value.
# Tests used:
# MM.1S cells = assay: MM.1S cell proliferation inhibition (MTS assay); assay type: cell-based; conditions: Homo sapiens, MM1.S, 168 h, 7 days incubation, read-out: MM1.S (IC50, Inhibitory Activity of Compounds on MM.1S Cell Proliferation)
# Protocol: The cell concentration was diluted according to a 7-day incubation period, and 180 µL of cell suspension was added to each well of a 96-well plate, with 20,000 cells per well. […] The test compounds were prepared from a 10 mM stock solution and serially diluted in a 5-fold gradient, and 20 µL of the diluted solution was added to each compound-treated well (final DMSO concentration also 0.2%). The cells were incubated in a 37 °C, 5% CO2 incubator for 7 days. After incubation, the reaction solution was prepared according to the MTS assay kit instructions (Promega, G5430), and 20 µL was added to each well. The plate was incubated at 37 °C with 5% CO2 for 3-4 hours. The absorbance at 490 nm was measured using a microplate reader, and the absorbance at 690 nm was used as the background value. […] The IC50 values for cell proliferation inhibition were determined using GraphPad Prism 5.0. Each experiment was repeated three times, and three parallel replicates were performed in each experiment to calculate the mean value and standard deviation.
# Inhibitory Activity of Compounds on MM.1S Cell Proliferation
# Mino cells = assay: Mino cell proliferation inhibition (MTS assay); assay type: cell-based; conditions: Homo sapiens, 72 h, 3 days incubation, read-out: Mino (IC50, Inhibitory Activity of Compounds on Mino Cell Proliferation)
# Protocol: The cell concentration was diluted according to a 3-day incubation period, and 90 µL of cell suspension was added to each well of a 96-well plate, resulting in 8,000 cells per well. […] The test compounds were prepared from a 10 mM stock solution and serially diluted in a five-fold gradient. Similarly, 10 µL of the diluted compound solution was added to each compound-treated well (final DMSO concentration 0.2%).
# The cells were incubated in a 37 °C, 5% CO2 incubator for 3 days. After incubation, the reaction solution was prepared according to the MTS assay kit instructions (Promega, G5430), and 20 µL was added to each well. The plate was further incubated at 37 °C with 5% CO2 for 3-4 hours. The absorbance at 490 nm was measured using a microplate reader, and the absorbance at 690 nm was used as the background value. The final raw data were calculated as OD490 - OD690. […] The IC50 values for cell proliferation inhibition were determined using GraphPad Prism 5.0. Each experiment was repeated three times, and three parallel replicates were performed in each experiment to calculate the mean value and standard deviation.
# Table 2. Inhibitory Activity of Compounds on Mino Cell Proliferation
# MV-4-11 cells = assay: MV-4-11 cell proliferation inhibition (MTS assay); assay type: cell-based; conditions: Homo sapiens, MV4-11, 168 h, 7 days incubation, MTS, read-out: MV-411 (IC50, Inhibitory Activity of Compounds on MV-4-11 Cell Proliferation)
# Protocol: MV-4-11 cells were cultured in IMDM medium supplemented with 10% fetal bovine serum and collected. The cell concentration was diluted according to a 7-day incubation period, and 180 µL of cell suspension was added to each well of a 96-well plate, resulting in 2,000 cells per well. […] The test compounds were prepared from a 10 mM stock solution and serially diluted in a five-fold gradient, and 20 µL of the diluted compound solution was added to each compound-treated well (final DMSO concentration 0.2%). The cells were incubated in a 37 °C, 5% CO2 incubator for 7 days. After incubation, the reaction solution was prepared according to the MTS assay kit instructions (Promega, G5430), and 20 µL was added to each well. The plate was further incubated at 37 °C with 5% CO2 for 3-4 hours. The absorbance at 490 nm was measured using a microplate reader, and the absorbance at 690 nm was used as the background value. The final raw data were calculated as OD490 - OD690. […] The IC50 values for cell proliferation inhibition were determined using GraphPad Prism 5.0. Each experiment was repeated three times, and three parallel replicates were performed in each experiment to calculate the mean value and standard deviation.
# Table 3. Inhibitory Activity of Compounds on MV-4-11 Cell Proliferation
# CRBN/DDB1 = CRBN/DDB1 (Homo sapiens, UniProt Q96SW2); assay: CRBN/DDB1 binding TR-FRET assay; conditions: read-out: AVE_Inhibition% (1 µM)
# CRBN/DDB1, sequence (Q96SW2 whole entry, species assumed): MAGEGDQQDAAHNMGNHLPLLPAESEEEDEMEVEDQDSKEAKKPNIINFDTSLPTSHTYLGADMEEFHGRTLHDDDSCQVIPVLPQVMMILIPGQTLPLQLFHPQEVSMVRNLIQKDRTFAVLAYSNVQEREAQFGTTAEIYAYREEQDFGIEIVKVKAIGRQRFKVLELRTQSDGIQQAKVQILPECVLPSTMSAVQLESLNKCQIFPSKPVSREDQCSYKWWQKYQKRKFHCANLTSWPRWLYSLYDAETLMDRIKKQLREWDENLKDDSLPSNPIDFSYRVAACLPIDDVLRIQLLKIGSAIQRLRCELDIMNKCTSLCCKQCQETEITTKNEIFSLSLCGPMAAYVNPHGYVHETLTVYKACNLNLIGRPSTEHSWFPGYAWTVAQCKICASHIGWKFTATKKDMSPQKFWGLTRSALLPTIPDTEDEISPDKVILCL
# CRBN/DDB1, sequence (Q16531 whole entry partner, species assumed): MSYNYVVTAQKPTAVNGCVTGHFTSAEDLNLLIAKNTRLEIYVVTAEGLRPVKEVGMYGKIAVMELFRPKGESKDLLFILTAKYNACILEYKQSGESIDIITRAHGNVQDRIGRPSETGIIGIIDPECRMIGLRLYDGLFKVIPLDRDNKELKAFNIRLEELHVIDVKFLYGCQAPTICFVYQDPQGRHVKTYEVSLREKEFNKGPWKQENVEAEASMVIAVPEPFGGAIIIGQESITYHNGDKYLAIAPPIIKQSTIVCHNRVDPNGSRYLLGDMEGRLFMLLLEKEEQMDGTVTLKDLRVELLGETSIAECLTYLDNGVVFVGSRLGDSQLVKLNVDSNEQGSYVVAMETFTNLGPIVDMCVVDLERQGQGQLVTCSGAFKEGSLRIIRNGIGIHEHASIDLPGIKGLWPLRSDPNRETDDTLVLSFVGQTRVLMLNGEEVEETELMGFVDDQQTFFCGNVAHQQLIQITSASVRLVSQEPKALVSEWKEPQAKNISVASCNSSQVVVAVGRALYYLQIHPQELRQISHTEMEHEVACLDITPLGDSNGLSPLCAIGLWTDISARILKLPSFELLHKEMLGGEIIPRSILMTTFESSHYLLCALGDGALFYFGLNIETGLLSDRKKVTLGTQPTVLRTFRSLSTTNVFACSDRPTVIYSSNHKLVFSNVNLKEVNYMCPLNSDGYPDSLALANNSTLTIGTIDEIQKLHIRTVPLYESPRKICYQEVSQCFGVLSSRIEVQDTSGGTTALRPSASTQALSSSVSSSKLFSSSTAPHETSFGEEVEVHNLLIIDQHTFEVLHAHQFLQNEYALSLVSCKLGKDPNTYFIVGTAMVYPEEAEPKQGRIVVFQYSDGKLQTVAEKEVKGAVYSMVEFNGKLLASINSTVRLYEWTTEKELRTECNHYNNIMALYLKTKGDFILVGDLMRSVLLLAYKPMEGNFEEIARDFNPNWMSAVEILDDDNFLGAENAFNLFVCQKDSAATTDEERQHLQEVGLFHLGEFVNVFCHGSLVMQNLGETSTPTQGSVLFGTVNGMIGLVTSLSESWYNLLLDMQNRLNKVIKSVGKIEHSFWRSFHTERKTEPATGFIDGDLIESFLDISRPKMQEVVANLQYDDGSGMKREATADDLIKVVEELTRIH
# Protocol: • 1. 0.1 µL of the reference solution was added to a 384-well assay plate. The final detection concentration was 100 µM, followed by 3-fold serial dilution for 10 points. • 2. 2.5 µL of CRBN/DDB1 was added to the 384-well plate and centrifuged at 1000 rpm for 1 minute. • 3. 2.5 µL of Thalidomide-BODIPY was added to the plate, centrifuged at 1000 rpm for 1 minute, and incubated at 25 °C for 15 minutes. • 4. 5 µL of His-Tb was added to the plate, centrifuged at 1000 rpm for 1 minute, and incubated at 25 °C for 60 minutes. • 5. The TR-FRET signal was measured using a BMG plate reader with a fluorescence ratio of 520/490 nm.
# Table 4. Inhibition Rate of Compounds on CRBN/DDB1 Binding
pIC50 (MM.1S cells),pIC50 (MV-4-11 cells),inhibition at 1 µM (CRBN/DDB1),Compound,pIC50 (Mino cells)
> 6.70,< 4.70,50 to 90%,"O=C1CC[C@H](n2[nH]c3c(OCc4ccc(CN5CCOCC5)cc4)cccc3c2=O)C(=O)N1 [Compound D1, (S)-3-(7-((4-(Morpholinomethyl)benzyl)oxy)-3-oxo-1,3-dihydro-2H-indazol-2-yl)piperidine-2,6-dione]",5.00 to 6.00
5.00 to 6.00,4.70 to 6.00,< 50%,CCn1c2c(OCc3ccc(CN4CCN(c5ccc(C#N)cc5F)CC4)cc3)cccc2c(=O)n1C1CCC(=O)NC1=O (stereo not drawn) [Compound D25],< 5.00
> 6.70,4.70 to 6.00,50 to 90%,"Cc1ccc(N2CCN(C(=O)c3ccc(COc4cccc5c(=O)n(C6CCC(=O)NC6=O)[nH]c45)cc3)CC2)c(F)c1 (stereo not drawn) [Compound D5, 3-(7-((4-(4-(2-Fluoro-4-methylphenyl)piperazine-1-carbonyl)benzyl)oxy)-3-oxo-1,3-dihydro-2H-indazol-2-yl)piperidine-2,6-dione]",> 6.70
> 6.70,> 6.70,> 90%,"O=C1CCC(n2[nH]c3c(OCc4ccc(CN5CCN(c6ccc(F)cc6)CC5)cc4)cc(F)cc3c2=O)C(=O)N1 (stereo not drawn) [Compound D19, 3-(5-Fluoro-7-((4-((4-(4-fluorophenyl)piperazin-1-yl)methyl)benzyl)oxy)-3-oxo-1,3-dihydro-2H-indazol-2-yl)piperidine-2,6-dione]",> 6.70
< 5.00,< 4.70,< 50%,"CC(C)(C)NC(=O)c1ccc2c(=O)n(C3CCC(=O)NC3=O)[nH]c2c1 (stereo not drawn) [Compound D40, N-(tert-butyl)-2-(2,6-dioxopiperidin-3-yl)-3-oxo-2,3-dihydro-1H-indazole-6-carboxamide]",< 5.00
> 6.70,> 6.70,> 90%,"N#Cc1ccc(N2CCN(Cc3ccc(COc4cc(F)cc5c(=O)n(C6CCC(=O)NC6=O)[nH]c45)cc3)CC2)c(F)c1 (stereo not drawn) [Compound D14, 4-(4-(4-(((2-(2,6-dioxopiperidin-3-yl)-5-fluoro-3-oxo-2,3-dihydro-1H-indazol-7-yl)oxy)methyl)benzyl)piperazin-1-yl)-3-fluorobenzonitrile]",> 6.70
< 5.00,< 4.70,,"C[C@@H](NC(=O)c1ccc2c(=O)n(C3CCC(=O)NC3=O)[nH]c2c1)c1ccccc1 (stereo partly drawn) [Compound D32, 2-(2,6-dioxopiperidin-3-yl)-3-oxo-N-((R)-1-phenylethyl)-2,3-dihydro-1H-indazole-6-carboxamide]",< 5.00
> 6.70,> 6.70,,"O=C1CCC(n2[nH]c3c(OCc4ccc(CN5CCN(c6ccc(Cl)cc6F)CC5)cc4)cc(F)cc3c2=O)C(=O)N1 (stereo not drawn) [Compound D21, 3-(7-((4-((4-(4-chloro-2-fluorophenyl)piperazin-1-yl)methyl)benzyl)oxy)-5-fluoro-3-oxo-1,3-dihydro-2H-indazol-2-yl)piperidine-2,6-dione]",6.00 to 6.70
> 6.70,> 6.70,,"O=C1CCC(n2[nH]c3c(OCc4ccc(CN5CCN(c6ccc(Cl)cc6Cl)CC5)cc4)cc(F)cc3c2=O)C(=O)N1 (stereo not drawn) [Compound D16, 3-(7-((4-((4-(2,4-dichlorophenyl)piperazin-1-yl)methyl)benzyl)oxy)-5-fluoro-3-oxo-1,3-dihydro-2H-indazol-2-yl)piperidine-2,6-dione]",> 6.70

# More lines, now with the values behind:
Compound,pIC50 (MM.1S cells),pIC50 (MV-4-11 cells),inhibition at 1 µM (CRBN/DDB1),pIC50 (Mino cells)
N#Cc1ccc(N2CCN(C(=O)c3ccc(COc4cccc5c(=O)n(C6CCC(=O)NC6=O)[nH]c45)cc3)CC2)c(F)c1 (stereo not drawn) [Compound D4],> 6.70,4.70 to 6.00,> 90%,> 6.70
"O=C1CCC(n2[nH]c3c(OCc4ccc(CN5CCN(c6cccc(Cl)c6)CC5)cc4)cccc3c2=O)C(=O)N1 (stereo not drawn) [Compound D8, 3-(7-((4-((4-(3-chlorophenyl)piperazin-1-yl)methyl)benzyl)oxy)-3-oxo-1,3-dihydro-2H-indazol-2-yl)piperidine-2,6-dione]",> 6.70,> 6.70,> 90%,> 6.70
"O=C1CCC(n2[nH]c3c(OCc4ccc(CN5CCN(c6ccc(F)cc6)CC5)cc4)cccc3c2=O)C(=O)N1 (stereo not drawn) [Compound D10, 3-(7-((4-((4-(4-fluorophenyl)piperazin-1-yl)methyl)benzyl)oxy)-3-oxo-1,3-dihydro-2H-indazol-2-yl)piperidine-2,6-dione]",> 6.70,> 6.70,> 90%,> 6.70
"O=C1CCC(n2[nH]c3cc(C(=O)NCc4ccccc4)ccc3c2=O)C(=O)N1 (stereo not drawn) [Compound D46, N-Benzyl-2-(2,6-dioxopiperidin-3-yl)-3-oxo-2,3-dihydro-1H-indazol-6-carboxamide]",< 5.00,< 4.70,< 50%,< 5.00
"O=C1CCC(n2[nH]c3c(OCc4ccc(CN5CCN(c6ccc(Cl)cc6)CC5)cc4)cccc3c2=O)C(=O)N1 (stereo not drawn) [Compound D9, 3-(7-((4-((4-(4-chlorophenyl)piperazin-1-yl)methyl)benzyl)oxy)-3-oxo-1,3-dihydro-2H-indazol-2-yl)piperidine-2,6-dione]",> 6.70,> 6.70,> 90%,> 6.70
"CCc1ccc([C@H](C)NC(=O)c2ccc3c(=O)n(C4CCC(=O)NC4=O)[nH]c3c2)cc1 (stereo partly drawn) [Compound D47, 2-(2,6-Dioxopiperidin-3-yl)-N-((S)-1-(4-ethylphenyl)ethyl)-3-oxo-2,3-dihydro-1H-indazol-6-carboxamide]",6.00 to 6.70,6.00 to 6.70,< 50%,> 6.70
"N#Cc1ccc(N2CCC(Sc3ccc(COc4cccc5c(=O)n([C@H]6CCC(=O)NC6=O)[nH]c45)cn3)CC2)c(F)c1 [Compound D3, (S)-4-(4-((5-(((2-(2,6-dioxopiperidin-3-yl)-3-oxo-2,3-dihydro-1H-indazol-7-yl)oxy)methyl)pyridin-2-yl)thio)piperidin-1-yl)-3-fluorobenzonitrile]",> 6.70,6.00 to 6.70,,> 6.70
"O=C1CC[C@H](n2[nH]c3c(OCc4cnc(-c5ccc(Cl)cc5)o4)cccc3c2=O)C(=O)N1 [Compound D27, (S)-3-(7-((2-(4-chlorophenyl)oxazol-5-yl)methoxy)-3-oxo-1,3-dihydro-2H-indazol-2-yl)piperidine-2,6-dione]",5.00 to 6.00,< 4.70,,< 5.00
"C[C@H](NC(=O)c1ccc2c(=O)n(C3CCC(=O)NC3=O)[nH]c2c1)c1ccc(Cl)cc1 (stereo partly drawn) [Compound D30, N-((S)-1-(4-chlorophenyl)ethyl)-2-(2,6-dioxopiperidin-3-yl)-3-oxo-2,3-dihydro-1H-indazole-6-carboxamide]",< 5.00,4.70 to 6.00,,5.00 to 6.00
